System: 475296-252-R-J1-PDC spheroid viability
Assay: Anticancer human tumor 475296-252-R-J1-PDC patient-derived rectal carcinoma cell line growth inhibition [PI3K]
Settings: spheroids with HUVEC and MSC; for IC50: curve of first compound; for viability, T/C: stronger effect = lower value; active = viability on the fitted dose curve at most 10% of control; inactive = the rest
Outline: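 Combination activity was assessed by viability in multicellular tumor spheroids carrying HUVEC and MSC components. Agents were tested with PI3K inhibitors from a Cmax-based top dose (or 10 microM) downward in half-log increments.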

[1] = second compound 0.00316 µM, first compound 0.0316 µM
[2] = second compound 0.00316 µM, first compound 0.1 µM
[3] = second compound 0.01 µM, first compound 0.0316 µM
[4] = second compound 0.01 µM, first compound 0.1 µM
[5] = second compound 0.0316 µM, first compound 0.0316 µM
[6] = second compound 0.0316 µM, first compound 0.1 µM
[7] = second compound 0.1 µM, first compound 0.0316 µM
[8] = second compound 0.1 µM, first compound 0.1 µM
[9] = second compound 0.316 µM, first compound 0.0316 µM
[10] = second compound 0.316 µM, first compound 0.1 µM
[11] = second compound 1 µM, first compound 0.0316 µM
[12] = second compound 1 µM, first compound 0.1 µM
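Note: spheroids exposed to agents for seven days before readout.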

CC(C)NCC(C(=O)N1CCN(c2ncnc3c2C(C)CC3O)CC1)c1ccc(Cl)cc1 (centres undefined) + COc1c(OCCCN2CCOCC2)ccc2c3n(c(=NC(=O)c4cnc(N)nc4)nc12)CCN3
6180 nM: IC50 (second compound 1 µM)
> 10000 nM: IC50 (second compound 0.00316 µM) | IC50 (second compound 0.01 µM) | IC50 (second compound 0.0316 µM) | IC50 (second compound 0.1 µM) | IC50 (second compound 0.316 µM)
inactive: viability, T/C [1] 98.5% | viability, T/C [2] 94.5% | viability, T/C (second compound 0.00316 µM, first compound 0.316 µM) 94.1% | viability, T/C (second compound 0.00316 µM, first compound 1 µM) 92.2% | viability, T/C (second compound 0.00316 µM, first compound 3.16 µM) 67.2% | viability, T/C (second compound 0.00316 µM, first compound 10 µM) 55.1% | viability, T/C [3] 106% | viability, T/C [4] 99% | viability, T/C (second compound 0.01 µM, first compound 0.316 µM) 96.5% | viability, T/C (second compound 0.01 µM, first compound 1 µM) 84.7% | viability, T/C (second compound 0.01 µM, first compound 3.16 µM) 65.6% | viability, T/C (second compound 0.01 µM, first compound 10 µM) 60% | viability, T/C [5] 108% | viability, T/C [6] 102% | viability, T/C (second compound 0.0316 µM, first compound 0.316 µM) 87.2% | viability, T/C (second compound 0.0316 µM, first compound 1 µM) 79.5% | viability, T/C (second compound 0.0316 µM, first compound 3.16 µM) 77% | viability, T/C (second compound 0.0316 µM, first compound 10 µM) 78.2% | viability, T/C [7] 92.8% | viability, T/C [8] 77.9% | viability, T/C (second compound 0.1 µM, first compound 0.316 µM) 87.6% | viability, T/C (second compound 0.1 µM, first compound 1 µM) 72.1% | viability, T/C (second compound 0.1 µM, first compound 3.16 µM) 75.2% | viability, T/C (second compound 0.1 µM, first compound 10 µM) 62% | viability, T/C [9] 68.6% | viability, T/C [10] 75% | viability, T/C (second compound 0.316 µM, first compound 0.316 µM) 70.2% | viability, T/C (second compound 0.316 µM, first compound 1 µM) 71.4% | viability, T/C (second compound 0.316 µM, first compound 3.16 µM) 62.7% | viability, T/C (second compound 0.316 µM, first compound 10 µM) 59.7% | viability, T/C [11] 60.4% | viability, T/C [12] 56% | viability, T/C (second compound 1 µM, first compound 0.316 µM) 67% | viability, T/C (second compound 1 µM, first compound 1 µM) 63.5% | viability, T/C (second compound 1 µM, first compound 3.16 µM) 55.8% | viability, T/C (second compound 1 µM, first compound 10 µM) 38.2%

CC(C)n1nc(-c2ccc3oc(N)nc3c2)c2c(N)ncnc21 + COc1c(OCCCN2CCOCC2)ccc2c3n(c(=NC(=O)c4cnc(N)nc4)nc12)CCN3
inactive: viability, T/C (second compound 0.00316 µM, first compound 0.000316 µM) 96.8% | viability, T/C (second compound 0.00316 µM, first compound 0.001 µM) 99.5% | viability, T/C (second compound 0.00316 µM, first compound 0.00316 µM) 84.6% | viability, T/C (second compound 0.00316 µM, first compound 0.01 µM) 73.2% | viability, T/C [1] 81.4% | viability, T/C [2] 56.9% | viability, T/C (second compound 0.01 µM, first compound 0.000316 µM) 96.5% | viability, T/C (second compound 0.01 µM, first compound 0.001 µM) 90.7% | viability, T/C (second compound 0.01 µM, first compound 0.00316 µM) 97.4% | viability, T/C (second compound 0.01 µM, first compound 0.01 µM) 92% | viability, T/C [3] 75.2% | viability, T/C [4] 64.3% | viability, T/C (second compound 0.0316 µM, first compound 0.000316 µM) 91.4% | viability, T/C (second compound 0.0316 µM, first compound 0.001 µM) 85.8% | viability, T/C (second compound 0.0316 µM, first compound 0.00316 µM) 101% | viability, T/C (second compound 0.0316 µM, first compound 0.01 µM) 82% | viability, T/C [5] 81.9% | viability, T/C [6] 51.7% | viability, T/C (second compound 0.1 µM, first compound 0.000316 µM) 95.2% | viability, T/C (second compound 0.1 µM, first compound 0.001 µM) 84.8% | viability, T/C (second compound 0.1 µM, first compound 0.00316 µM) 78.8% | viability, T/C (second compound 0.1 µM, first compound 0.01 µM) 79.6% | viability, T/C [7] 68.8% | viability, T/C [8] 48.3% | viability, T/C (second compound 0.316 µM, first compound 0.000316 µM) 71.7% | viability, T/C (second compound 0.316 µM, first compound 0.001 µM) 67.6% | viability, T/C (second compound 0.316 µM, first compound 0.00316 µM) 68.2% | viability, T/C (second compound 0.316 µM, first compound 0.01 µM) 73% | viability, T/C [9] 56.5% | viability, T/C [10] 35.2% | viability, T/C (second compound 1 µM, first compound 0.000316 µM) 60.8% | viability, T/C (second compound 1 µM, first compound 0.001 µM) 56.7% | viability, T/C (second compound 1 µM, first compound 0.00316 µM) 59.5% | viability, T/C (second compound 1 µM, first compound 0.01 µM) 55.6% | viability, T/C [11] 51.6% | viability, T/C [12] 35.6%
49 nM: IC50 (second compound 0.316 µM)
98.7 nM: IC50 (second compound 0.1 µM)
> 100 nM: IC50 (second compound 0.00316 µM) | IC50 (second compound 0.01 µM) | IC50 (second compound 0.0316 µM)
34.4 nM: IC50 (second compound 1 µM)
